# Reference: publication PMC10661491 (Virus Research, 2023)
# pIC50: −log10 of the molar value. Read-outs that look alike come from different tables or passages of the source.
# What was measured:
# ASFV [1] = format: cell-based, African Swine Fever Virus (ASFV)
# macropinocytosis of PAMs = format: cell-based, pigs
# ASFV [2] = format: cell-based, African Swine Fever Virus (ASFV); remark: listed apart in the source
# PI3K/Akt pathway = format: cell-based, pigs
# ASFV [3] = format: cell-based, African Swine Fever Virus (ASFV); remark: listed apart in the source
# ASFV [4] = experiment: microbe, parasite or virus in culture; format: cell-based; details: African swine fever virus, BMDM, read-out: IC50 against ASFV
# ASFV [5] = format: cell-based, African Swine Fever Virus (ASFV); remark: listed apart in the source
# ASFV [6] = format: cell-based, African Swine Fever Virus (ASFV); remark: listed apart in the source
# LSDV = format: cell-based, Lumpy Skin Disease Virus (LSDV)
# PEDV = format: cell-based, Porcine Epidemic Diarrhea Virus (PEDV)
# ASFV [7] = experiment: microbe, parasite or virus in culture; format: cell-based; details: African swine fever virus, MA104, read-out: IC50 against ASFV
# [8] = tested on: clathrin-mediated endocytosis of PAMs; format: cell-based, pigs
# ASFV [9] = experiment: microbe, parasite or virus in culture; format: cell-based; details: African swine fever virus, read-out: IC50 against ASFV
# ASFV [10] = format: cell-based, African Swine Fever Virus (ASFV); remark: listed apart in the source
smiles,measurement,setting,value
O=c1cc(N2CCOCC2)oc2c(-c3ccccc3)cccc12 [LY294002],levels of CP204L and B646L,ASFV [1],significantly suppressed
same,uptake of dextran-Alexa647 by PAMs,macropinocytosis of PAMs,no uptake of dextran-Alexa647
same,"expression of ASFV p72 (Western Blot, Fig. 7(B))",ASFV [2],not detected
same,"phosphorylation of Akt (Western Blot, Fig. 7(B))",PI3K/Akt pathway,completely inhibited
"COc1ccc2cc1Oc1ccc(cc1)C[C@H]1c3cc(c(OC)cc3CCN1C)Oc1c(OC)c(OC)cc3c1[C@H](C2)N(C)CC3 [TET, Tetrandrine]",levels of CP204L and B646L,ASFV [1],significantly suppressed
same,ASFV-infected (fluorescent) PAMs by IFA,ASFV [3],hardly any fluorescent PAMs were observed
same,pIC50,ASFV [4],5.94
same,cytotoxicity,IPEC-J2 cells,no cytotoxicity
same,"Dext (dextran-Alexa647) fluorescence signal, treated versus untreated group",macropinocytosis of PAMs,completely disappeared
same,uptake of dextran-Alexa647 by PAMs,macropinocytosis of PAMs,no uptake of dextran-Alexa647
same,cytotoxicity,MDBK cells,no cytotoxicity
same,ASFV infection level,ASFV [5],less than 0.5%
same,"ASFV p72 expression level by Western Blot, single-stage treatment",ASFV [6],significant reduction in ASFV p72 expression level was observed only during the internalization stage
same,expression level of ASFV p72 (Western Blot),ASFV [2],dose-dependent inhibition
same,"expression of ASFV p72 (Western Blot, Fig. 7(B))",ASFV [2],not detected
same,inhibition rate of TET on ASFV compared to the LY294002 control group,ASFV [2],~0%
same,level of ASFV-p72 protein (Western Blot),ASFV [2],significantly reduced
same,"inhibitory effect on LSDV (LSDV 117 protein, Western Blot)",LSDV,dose-dependent inhibitory effect
same,"inhibitory effect on PEDV (PEDV N protein, Western Blot)",PEDV,dose-dependent inhibitory effect
same,pIC50,ASFV [7],6.06
same,"transferrin-Alexa594 internalization, treated versus untreated group",[8],no significant difference
same,"phosphorylation of Akt (Western Blot, Fig. 7(B))",PI3K/Akt pathway,partially inhibited
same,phosphorylation of Akt activated by ASFV internalization,PI3K/Akt pathway,inhibited the phosphorylation of Akt
same,pIC50,ASFV [9],6.35
same,ASFV infection after co-incubation of TET and ASFV (virucidal effect),ASFV [10],did not significantly reduce ASFV infection
same,cytotoxicity,Vero cells,no cytotoxicity
